Reference: patent US6858591B2, “Antibiotic AA 896 analogs” (Wyeth Holdings Corporation, priority 2001, dated 2005)
Converted amounts (≈) assume the structure as drawn. Where two headings read alike, the source gives them in different places.

How the values were obtained:
Assay in all cases: In vitro MIC, broth dilution
Assay type in all cases: cell-based
E. coli GC 3226 = settings: Escherichia coli, GC3226
E. coli GC 4559 = settings: Escherichia coli, GC4559
E. faecalis GC 4555 = settings: Enterococcus faecalis, GC4555
Method in brief: (§1)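 Susceptibility testing used the NCCLS broth dilution method. Antibiotic spanned 64-0.06 μg/ml against an inoculum of 5×10^5 CFU/ml in Mueller-Hinton II; after 18 hours at 35° C the lowest concentration without growth gave the MIC.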

S. aureus GC 2216 = settings: Staphylococcus aureus, GC2216
Method in brief: as §1

E. faecalis GC 842 = settings: Enterococcus faecalis, GC842
Method in brief: as §1

CNS GC 4537 = tested on: CNS GC 4537
Method in brief: as §1

E. faecalis GC 2242 = settings: Enterococcus faecalis, GC2242
Method in brief: as §1

CNS GC 4547 = tested on: CNS GC 4547
Method in brief: as §1

S. aureus GC 4536 = settings: Staphylococcus aureus, GC4536
Method in brief: as §1

CNS GC 4538 = tested on: CNS GC 4538
Method in brief: as §1

S. aureus GC 1131 = settings: Staphylococcus aureus, GC1131
Method in brief: as §1

P. aeruginosa GC 4532 = settings: Pseudomonas aeruginosa, GC4532
M. morganii GC 4531 = settings: Morganella morganii, GC4531
E. coli GC 2203 = settings: Escherichia coli, GC2203
S. marcescens GC 4077 = settings: Serratia marcescens, GC4077
E. cloacae GC 3783 = settings: Enterobacter cloacae, GC3783
C. albicans GC 3066 = settings: Candida albicans, GC3066
P. aeruginosa GC 2214 = settings: Pseudomonas aeruginosa, GC2214
K. pneumoniae GC 4534 = settings: Klebsiella pneumoniae, GC4534
E. coli GC 4560 = settings: Escherichia coli, GC4560

Row | SMILES | MIC (E. coli GC 3226) | MIC (E. coli GC 4559) | MIC (E. faecalis GC 4555) | MIC (S. aureus GC 2216) | MIC (E. faecalis GC 842) | MIC (CNS GC 4537) | MIC (E. faecalis GC 2242) | MIC (CNS GC 4547) | MIC (S. aureus GC 4536) | MIC (CNS GC 4538) | MIC (S. aureus GC 1131) | MIC (P. aeruginosa GC 4532) | MIC (M. morganii GC 4531) | MIC (E. coli GC 2203) | MIC (S. marcescens GC 4077) | MIC (E. cloacae GC 3783) | MIC (C. albicans GC 3066) | MIC (P. aeruginosa GC 2214) | MIC (K. pneumoniae GC 4534) | MIC (E. coli GC 4560) | other results
1 | CCOC(=O)C(NCCCNC(=O)[C@@H](N)[C@H](C)O)[C@@H](O)[C@H]1O[C@H](n2ccc(=O)[nH]c2=O)[C@H](OC(C)=O)[C@@H]1OC(C)=O (stereo partly drawn) [Example 32, Ethyl (3R)-2-[(3-{[(2S,3S)-2-amino-3-hydroxybutanoyl]amino}propyl)amino]-3-[(2R,3R,4R,5S)-3,4-bis(acetyloxy)-5-(2,4-dioxo-3,4-dihydro-1(2H)-pyrimidinyl)tetrahydro-2-furanyl]-3-hydroxypropanoate] |  |  |  |  |  |  |  |  |  |  |  |  |  |  |  |  |  |  |  |  | MIC (E. coli GC 3226; E. coli GC 3226, read-out: MIC): > 128 µg/mL; MIC (E. coli GC 4559; E. coli GC 4559, read-out: MIC): > 128 µg/mL; MIC (E. faecalis GC 4555; E. faecalis GC 4555, read-out: MIC): > 128 µg/mL; MIC (S. aureus GC 2216; S. aureus GC 2216, read-out: MIC): > 128 µg/mL; MIC (E. faecalis GC 842; E. faecalis GC 842, read-out: MIC): > 128 µg/mL; MIC (CNS GC 4537; CNS GC 4537, read-out: MIC): > 128 µg/mL; MIC (E. faecalis GC 2242; E. faecalis GC 2242, read-out: MIC): > 128 µg/mL; MIC (CNS GC 4547; CNS GC 4547, read-out: MIC): > 128 µg/mL; MIC (S. aureus GC 4536; S. aureus GC 4536, read-out: MIC): > 128 µg/mL; MIC (CNS GC 4538; CNS GC 4538, read-out: MIC): > 128 µg/mL; MIC (S. aureus GC 1131; S. aureus GC 1131, read-out: MIC): > 128 µg/mL; MIC (P. aeruginosa GC 4532; P. aeruginosa GC 4532, read-out: MIC): > 128 µg/mL; MIC (M. morganii GC 4531; M. morganii GC 4531, read-out: MIC): > 128 µg/mL; MIC (E. coli GC 2203; E. coli GC 2203, read-out: MIC): > 128 µg/mL; MIC (S. marcescens GC 4077; S. marcescens GC 4077, read-out: MIC): > 128 µg/mL; MIC (E. cloacae GC 3783; E. cloacae GC 3783, read-out: MIC): > 128 µg/mL; MIC (C. albicans GC 3066; C. albicans GC 3066, read-out: MIC): > 128 µg/mL; MIC (P. aeruginosa GC 2214; P. aeruginosa GC 2214, read-out: MIC): > 128 µg/mL; MIC (K. pneumoniae GC 4534; K. pneumoniae GC 4534, read-out: MIC): > 128 µg/mL; MIC (E. coli GC 4560; E. coli GC 4560, read-out: MIC): > 128 µg/mL
2 | COc1ccc(Cn2c(=O)ccn([C@@H]3OC([C@H](O)[C@H](NCCCNC(=O)C(NC(=O)[C@H](CCCNC(=N)N[N+](=O)[O-])NC(=O)N[C@H](C(=O)OCc4ccccc4)C(C)C)[C@@H](C)O)C(=O)OC(C)(C)C)[C@@H](O[Si](C)(C)C(C)(C)C)[C@H]3O[Si](C)(C)C(C)(C)C)c2=O)cc1 (stereo partly drawn) [Example 30, 1-Benzyl 17-(tert-butyl)(2S,6S,9S,16S)-16-[(R)-[(3R,4R,5R)-3,4-bis{[tert-butyl(dimethyl)silyl]oxy}-5-(3-(4-methoxybenzyl)-2,4-dioxo-3,4-dihydro-1(2H)-pyrimidinyl)tetrahydro-2-furanyl](hydroxy)methyl]-6-(3-{[(2,2-dioxido-2lambda˜1˜-diazanyl)(imino)methyl]amino}propyl)-9-[(1S)-1-hydroxyethyl]-2-isopropyl-4,7,10-trioxo-3,5,8,11,15-pentaazaheptadecane-1,17-dioate] | > 128 µg/mL | > 128 µg/mL | 64 µg/mL (≈ 48.7 µM) | 128 µg/mL (≈ 97.4 µM) | 128 µg/mL (≈ 97.4 µM) | 128 µg/mL (≈ 97.4 µM) | 64 µg/mL (≈ 48.7 µM) | 128 µg/mL (≈ 97.4 µM) | 128 µg/mL (≈ 97.4 µM) | 128 µg/mL (≈ 97.4 µM) | 128 µg/mL (≈ 97.4 µM) | 64 µg/mL (≈ 48.7 µM) | 128 µg/mL (≈ 97.4 µM) | > 128 µg/mL | 128 µg/mL (≈ 97.4 µM) | 128 µg/mL (≈ 97.4 µM) | 64 µg/mL (≈ 48.7 µM) | 64 µg/mL (≈ 48.7 µM) | 128 µg/mL (≈ 97.4 µM) | 64 µg/mL (≈ 48.7 µM) | 
3 | COc1ccc(Cn2c(=O)ccn([C@@H]3OC([C@@H](O)[C@H](NCCCNC(=O)[C@@H](NC(=O)OCc4ccccc4)[C@H](C)O)C(=O)OC(C)(C)C)[C@@H](O[Si](C)(C)C(C)(C)C)[C@H]3O[Si](C)(C)C(C)(C)C)c2=O)cc1 (stereo partly drawn) [Example 8, tert-Butyl (5S,12S)-12-[(S)-[(3R,4R,5R)-3,4-bis{[tert-butyl(dimethyl)silyl]oxy}-5-(3-(4-methoxybenzyl)-2,4-dioxo-3,4-dihydro-1(2H)-pyrimidinyl)tetrahydro-2-furanyl](hydroxy)methyl]-5-[(1S)-1-hydroxyethyl]-3,6-dioxo-1-phenyl-2-oxa-4,7,11-triazatridecan-13-oate] | > 128 µg/mL | > 128 µg/mL | 64 µg/mL (≈ 63.1 µM) | 128 µg/mL (≈ 126 µM) | 64 µg/mL (≈ 63.1 µM) | 128 µg/mL (≈ 126 µM) | 64 µg/mL (≈ 63.1 µM) | 128 µg/mL (≈ 126 µM) | 128 µg/mL (≈ 126 µM) | 128 µg/mL (≈ 126 µM) | 128 µg/mL (≈ 126 µM) | 64 µg/mL (≈ 63.1 µM) | 64 µg/mL (≈ 63.1 µM) | 64 µg/mL (≈ 63.1 µM) | 64 µg/mL (≈ 63.1 µM) | 64 µg/mL (≈ 63.1 µM) | 32 µg/mL (≈ 31.5 µM) | 64 µg/mL (≈ 63.1 µM) | 64 µg/mL (≈ 63.1 µM) | 64 µg/mL (≈ 63.1 µM) | 
